Data taken from PubChem BioAssay (NCI).
Several values for one entry are separate records, joined by “and”; a condition that tells them apart may be missing. Identical values can stand only once.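 96-well plates; 48 h exposure; 5 concentrations. Endpoints by linear interpolation between flanking doses. Not reached: highest tested concentration assigned. Abbreviation: GI50, concentration required for 50% inhibition of growth. TGI denotes the concentration required for complete inhibition of growth.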

Key:
Experiment in all cases: NCI tumour cell line growth inhibition, 48 h
[1] = tested on: KM20L2 colon
[2] = tested on: SN12K1 renal
[3] = tested on: DLD-1 colon
[4] = tested on: P388/ADR leukemia
[5] = tested on: M19-MEL melanoma
[6] = tested on: HOP-18 NSCLC
[7] = tested on: P388 leukemia
[8] = tested on: XF 498 CNS
[9] = tested on: DMS 114 small cell lung
[10] = tested on: DMS 273 small cell lung
[11] = tested on: LXFL 529 NSCLC
[12] = tested on: RXF-631 renal

Row | SMILES | TGI [1] [µM] | GI50 [2] [µM] | TGI [2] [µM] | GI50 [3] [µM] | TGI [3] [µM] | GI50 [4] [µM] | TGI [4] [µM] | TGI [5] | GI50 [6] [µM] | TGI [6] | GI50 [7] [µM] | TGI [7] [µM] | TGI [8] [µM] | TGI [9] | TGI [10] [µM] | TGI [11] | TGI [12]
1 | O.O=[Se](=O)(O)O.[NH-]C1CCCCC1[NH-].[Pt+2] (stereo not drawn) | > 100 | > 30.4 | > 100 | 19 | > 100 | 7.22 | > 100 | > 75.6 µM | > 100 | > 100 µM | 0.433 | 30.9 | – | – | – | – | –
2 | Nc1ncnc2c(C3OC(CO)C(O)C3O)c[nH]c12 (stereo not drawn) | 1.1 | – | – | – | 0.0413 | – | – | 0.196 µM and 0.423 µM | – | 0.497 µM and 1.34 µM | – | – | 0.168 | 0.0304 µM and 0.0184 µM | 0.116 | 0.189 µM and 0.153 µM | 0.56 µM and 0.533 µM
3 | CC1=NN(C(=O)Cc2ccccc2)C(=O)/C1=C\c1cccc(O)c1 | – | – | – | – | > 100 | – | – | > 100 µM | – | > 100 µM | – | – | > 100 | > 100 µM | > 100 | – | –
4 | Cc1cc(Br)cc(C)c1NC(=O)C(=O)C(C(=O)c1ccc(Cl)c(Cl)c1)C1OC(=O)c2ccccc21 (stereo not drawn) | > 100 | – | – | – | 51.2 | – | – | > 100 µM | – | – | – | – | – | > 100 µM | > 100 | > 100 µM | > 100 µM
5 | COc1ccc(CNc2cnc3cc(N)ccc3n2)cc1OC | – | – | – | – | > 100 | – | – | > 100 µM | – | – | – | – | – | > 100 µM | > 100 | – | –
6 | COc1ccc(/C(Cl)=C(\C=O)c2ccc(Cl)cc2)cc1 | 33.2 | – | – | – | > 100 | – | – | 75.4 µM | – | > 100 µM | – | – | – | 32.5 µM | > 100 | 51 µM | 47.6 µM
7 | COc1cccc2c1C(=O)c1c(O)c3c(c(O)c1C2=O)C[C@](O)(C(=O)CO)CC3OC1CC(N)C(OC2CCCCO2)C(C)O1 (stereo partly drawn) | 4.84 | – | 0.879 | – | 12.5 | – | > 100 | – | – | 3 µM | – | 0.233 | 0.684 | – | 1.22 | – | –
8 | Cc1ccc(NC(=O)NC23CC4CC(CC(F)(C4)C2)C3)cc1 | > 100 | – | – | – | > 100 | – | – | > 100 µM | – | – | – | – | > 100 | > 100 µM | > 100 | > 100 µM | –
9 | CC(=O)Nc1[nH]c(=O)[nH]c(=O)c1N(C(C)=O)C(C)=O | > 100 | – | – | – | > 100 | – | – | > 100 µM | – | – | – | – | > 100 | > 100 µM | > 100 | > 100 µM | –
10 | C=C1C(=O)OC2C1CC1OC2C(C)CCC/C(C)=C\CCC1(C)O (stereo not drawn) | 81.9 | – | 40.2 | – | 64.8 | – | 58.2 | 29 µM | – | 19.7 µM | – | 42.4 | 38.9 | 33 µM | 53.1 | – | –
11 | O=C(NNc1ccc([N+](=O)[O-])cc1)C1OC(CO)C(O)C1O (stereo not drawn) | > 100 | – | – | – | > 100 | – | – | > 100 µM | – | > 100 µM | – | – | > 100 | > 100 µM | > 100 | > 100 µM | –
12 | O=c1c2cc(Cl)ccc2n2nnc3ccc(NCCNCCO)c1c32 | 2.72 | – | – | – | 5.76 | – | – | 3.28 µM | – | – | – | – | – | 3.59 µM | 2.45 | 3.51 µM | 3.05 µM
13 | C#Cc1ccccc1C(=O)OC | > 100 | – | – | – | > 100 | – | – | – | – | > 100 µM | – | – | > 100 | > 100 µM | > 100 | – | –
14 | CC1Oc2c(c(O)cc3oc(=O)cc(-c4ccccc4)c23)C(=O)C1C (stereo not drawn) | > 100 | – | – | – | > 100 | – | – | – | – | > 100 µM | – | – | > 100 | – | > 100 | > 100 µM | > 100 µM
15 | O=C(c1ccccc1)c1ccc2c(c1)N=C(c1ccc(Cl)c(Cl)c1)CC(c1ccc3ccccc3c1)N2 (stereo not drawn) | > 100 | – | – | – | > 100 | – | – | > 100 µM | – | – | – | – | > 100 | > 100 µM | > 100 | > 100 µM | > 100 µM
16 | CN(c1ccccc1)c1c(-c2ccccc2)c(=O)oc2c1ccc1occc12 | – | – | > 100 | – | > 100 | – | > 100 | > 100 µM | – | > 100 µM | – | > 100 | – | > 100 µM | > 100 | – | –
17 | CC12CC(=O)NN=C1c1ccccc1C2 (stereo not drawn) | > 100 | – | – | – | > 100 | – | – | > 100 µM | – | – | – | – | > 100 | > 100 µM | > 100 | – | –
